Source: article PMC5567253 (Scientific Reports, 2017)
Where two headings read alike, the source gives them in different places.

Columns and labels:
A549 = system: A549; set-up: method as in PMID 24098916; settings: cited from earlier work
[1] = system: vimentin mRNA in MDA-MB-231 cells; assay: PCR analysis of vimentin mRNA; assay type: cell-based, human; settings: 24 h
Procedure: (§1) Total RNA from MDA-MB-231 cells was isolated using TRIzol (Life Technologies, USA). RNA samples were quantified using a NanoDrop 3300 spectrophotometer (Thermo Scientific, NanoDrop Products, Wilmington, DE, USA). Synthesis of cDNA was performed using a RevertAid First Strand cDNA Synthesis kit per manufacturer’s protocols (Thermo Scientific, USA). The reaction mixtures were heated at 95 °C for 10 min, followed by 30 cycles at 94 °C for 30 s, 58 °C for 30 s, 72 °C for 20 s, and a final extension at 72 °C for 5 min. Subsequently, PCR products were electrophoresed in a 1.5% agarose gel and scanned using a gel/fluorescence image analysis system. GAPDH was selected as a loading control to standardize the amount of cDNA from each sample.

[2] = system: intracellular ROS in MDA-MB-231 cells; assay: Measurement of intracellular ROS (H2DCFDA); assay type: cell-based, human; settings: 24 h, maximum potency at 20 μM
Procedure: The levels of intracellular ROS were monitored using dichlorofluorescein diacetate (H2DCFDA) as previously reported. […] The culture media were replaced with 1 ml of H2DCFDA/RPMI DMEM media and incubated at 37 °C for 30 min, with a final H2DCFDA concentration of 10 μM. The levels of ROS were then detected using flow cytometry (FACSCanto II, BD, San Jose, CA).

[3] = system: β-catenin mRNA in MDA-MB-231 cells; assay: PCR analysis of β-catenin mRNA; assay type: cell-based, human; settings: 24 h
Procedure: as §1

MDA-MB-231 cells [4] = assay: cells; settings: Homo sapiens, MDA-MB-231, 48 h, read-out: approximate IC50 of colony forming ability
Procedure: The culture media was then aspirated and fresh cell culture media was added to allow colony formation. The culture media was changed every third day. The colonies were fixed with ice-cold methanol for 5 min and stained with 1.0% crystal violet for 30 min. Colony numbers were counted and representative photos were taken.

[5] = system: vimentin protein in MDA-MB-231 cells; assay: Western blotting of vimentin; assay type: cell-based, human; settings: western blot
Procedure: Total cell lysates were obtained by lysing the cells in SDS lysis buffer containing a protease inhibitor (PMSF), and protein concentrations were determined using a BCA protein assay kit. The proteins were separated by SDS-PAGE and transferred to PVDF membranes. The membranes were incubated with primary antibodies against Snail, Vimentin, β-catenin, and E-cadherin (1:1000 dilution) overnight at 4 °C, rinsed with TBST, and incubated with IRDye-conjugated anti-rabbit or anti-mouse IgG secondary antibodies (1:1000, LI-COR Biosciences). A β-actin-specific monoclonal antibody (1:1000 dilution) was used as a loading control. Bands were visualized with an Odyssey LI-COR infrared imaging system (LI-COR, Lincoln, NE).

MDA-MB-231 cells [6] = assay: Cell cycle analysis by flow cytometry; assay type: cell-based, human; settings: 24 h, vehicle 31.52 ± 2.67%
Procedure: Cell cycle analysis was carried out as previously described. […] They were washed thrice with ice-cold phosphate-buffered saline (PBS) and fixed with 75% ethanol at −20 °C overnight. The cells were then washed, incubated with 5 μl of RNase (0.25 mg/ml) at 37 °C for 30 min, pelleted, resuspended in propidium iodide (PI, 50 μg/ml), and incubated in the dark at room temperature for 15 min. Cell cycle analysis was analysed using a flow cytometer (FACSCanto II, BD, San Jose, CA).

[7] = In vivo pharmacokinetics in rat plasma (UPLC-MS/MS, NCA); set-up: species or system Sprague-Dawley (SD) rats; settings: intraperitoneal; for MRT last: read-out: MRT0-t; for Tmax: read-out: Tmax
Procedure: Male Sprague-Dawley (SD) rats (250 ± 50 g body weight) were purchased from Institute of Laboratory Animal Sciences, Peking Union Medical College (Beijing, China). Rats were housed in a light-controlled room at 25 ± 2 °C and 55 ± 5% relative humidity, at the Animal Center of Tianjin Medical University Cancer Institute and Hospital (Tianjin, China). Animals received a standard diet and water ad libitum. […] At 0, 10, 20, 30, 40 min, 1, 2, 3, 4, 6, 8, 10, 12, and 24 h post injection, blood samples were collected into heparinized glass tubes by direct venipuncture. Plasma was prepared from the blood by centrifugation at 13,000 rpm for 10 min at 4 °C and stored at −80 °C until further analysis.
An ACQUITY™ ultra-performance liquid chromatography system connected to a Xevo triple quadrupole mass spectrometry system (Waters, MA, USA) equipped with an electrospray ionization (ESI) source was used in this study. Aliquots (50 μl) of plasma was vortex-mixed with methanol (400 μl) containing diazepam (internal standard, 200 ng/ml concentration) for 2 min and then centrifuged at 13,000 rpm at 4 °C for 10 min. Then, 400 μl of supernatant was transferred to a clean centrifuge tube and dried with an N2 gas stream. Samples were reconstituted with 100 μl methanol/H2O (50/50, v/v). The injection volume of the assay was 5 μl. The mobile phase (MP) was composed of MPA (acetonitrile) and MPB (5 mM ammonium formate with 0.1% formic acid in water), and the flow rate was maintained at 0.3 ml/min. […] A switching valve directed the flow eluting between 1.0–2.5 min into a mass spectrometer, and the remainder to a waste container. BHX and diazepam were ionized with ESI in the positive mode and fragmented with collision gas for analysis using multiple reaction monitoring (MRM). The ESI source settings for the analysis were as follows: 350 °C gas temperature; 650 L/h desolvation; 50 L/h cone; 2.5 kV capillary voltage. […] The data acquisition and processing were done using MassLynx Mass Spectrometry software, version 4.1 (Waters, MA, USA). The dwell time was 400 ms for all ion transitions monitored.

[8] = male, Sprague-Dawley, plasma, ip, 50 ug/kg, 50 μg/kg
[9] = male, Sprague-Dawley, plasma, ip, 100 ug/kg, 100 μg/kg

For `O=C(NCc1ccc(O)cc1)C1C(c2ccccc2)C(c2ccccc2)=NN1c1ccccc1` (centres unmarked) [BHX], the cytotoxic effects (A549) is listed as “exhibits cytotoxic effects”, the “reduction of vimentin mRNA levels” value ([1]; 5 μM) is listed as 4.89% and the “reduction of vimentin mRNA levels” value ([1]; 10 μM) is listed as 26.27%. For the same compound, the “reduction of vimentin mRNA levels” value ([1]; 20 μM) was 40.08%, the ROS generation [2] was “significantly increased in a dose-dependent manner” and the “decrease of β-catenin mRNA levels” value ([3]; 5 μM) was 4.61%. For the same compound, the “decrease of β-catenin mRNA levels” value ([3]; 10 μM) was 25.73%, the “decrease of β-catenin mRNA levels” value ([3]; 20 μM) was 33.19% and the IC50 (MDA-MB-231 cells [4]) was roughly 20 µM. The vimentin protein expression [5] was “down-regulating Snail and vimentin expression in a dose-dependent manner”, the “percentage of cells in the G0/G1 phase” value (MDA-MB-231 cells [6]; 10 μM) was 54.49 ± 1.93% and the “percentage of cells in the G0/G1 phase” value (MDA-MB-231 cells [6]; 20 μM) was 61.50 ± 2.85%. The CL ([7]; 50 μg/kg) was 0.028 ± 0.006 L/h/kg, the Vd ([7]; 50 μg/kg) was 0.192 ± 0.047 L/kg and the t1/2 ([7]; 50 μg/kg) was 4.82 ± 0.93 h. The CL ([7]; 100 μg/kg) was 0.043 ± 0.007 L/h/kg, the Vd ([7]; 100 μg/kg) was 0.253 ± 0.062 L/kg and the Cmax ([7]; male, Sprague-Dawley, plasma, ip, 50 ug/kg) was 325 ± 55.1 ng/mL. It also gave an MRT last [7, 8] of 6.8 ± 1.25 h, a Tmax [7, 8] of 5.37 ± 1.16 h and a half-life ([7]; male, Sprague-Dawley, plasma, ip, 50 ug/kg, 50 μg/kg, read-out: elimination half-life in plasma (converted)) of 289 ± 55.8 min. The AUC(0-t) ([7]; male, Sprague-Dawley, plasma, ip, 50 ug/kg, first AUC0-t line) was 1770 ± 325 ng·h/mL, the AUC(0-t) ([7]; male, Sprague-Dawley, plasma, ip, 50 ug/kg, second AUC0-t line) was 1820 ± 287 ng·h/mL and the Cmax ([7]; male, Sprague-Dawley, plasma, ip, 100 ug/kg) was 405 ± 87.5 ng/mL. For the same compound, the MRT last [7, 9] was 6.36 ± 1.32 h and the Tmax [7, 9] was 5.62 ± 1.38 h.
